These results are taken from publication PMC8402075, “Synthesis and Antiplasmodial Activity of Bisindolylcyclobutenediones” (Molecules, 2021).

For experiment [1], the system named is P. falciparum (NF54-luc strain) erythrocytic stages. The experiment can be described thus: Luciferase-based viability screening for antiplasmodial activity. Conditions: Plasmodium falciparum; for inhibition at 3 µM: read-out: Inhibition at 3 µM [%]. Type of experiment: cell-based, Plasmodium falciparum. Here is the method: All synthesized new bisindolylcyclobutenediones 2a–2ar and the related bisindolylmaleimide 8 [37] were screened for inhibition of erythrocytic stages of Plasmodium falciparum employing a bioluminescence-based viability assay on transgenic parasites that constitutively express luciferase (PfNF54-luc). Initially, the compounds were evaluated in single-dose test runs (3 µM). If >20% viability inhibition was observed, dose-response curves were generated and IC50 values were calculated (Table 1). […] The bisindolylmaleimide 8 [37] inhibited the parasites in a single-digit micromolar concentration, similar to many of the bisindolylcyclobutenediones in the study. Because the bisindolylcyclobutenediones 2 display a higher degree of structural novelty, only this compound class was further pursued for its antiplasmodial activity. […] These structural features were considered unfavorable for orientations as illustrated in Figure 2 with 2a and Pfmap-2, PfPK5, PfCDPK2, Pflammer, and PfPK7, respectively. However, a structure generated for 2a in PfGSK-3 in which the indole units are oriented perpendicular to each other (Figure 2a) was considered compatible with the indicated substitution pattern. Consequently, the potent antiplasmodial derivatives 2k, 2ad, and 2ae were tested in a kinase Glo assay for inhibition of recombinant PfGSK-3. […] For the compounds with particularly potent antiplasmodial activity, cytotoxicity was also determined using the human cell line THP-1 to assess selectivity with respect to parasite cells (Table 2).
Screening for the antiplasmodial activity of test compounds was performed by luciferase-based viability assays as reported previously. In brief, asexual erythrocytic stages of transgenic NF54-luc P. falciparum were cultured as described elsewhere. Parasite cultures with parasitaemia of 0.5–1% were incubated in the presence of 3 µM test compounds for 48 h. After the subsequent addition of Bright-Glo substrate solution (Promega, Madison, WI), the resulting luminescence was measured. Untreated cultures (0.01% DMSO) were used as negative controls. Experiments were performed in triplicate and were repeated as a whole at least twice. Blasticidin (Sigma-Aldrich, St. Louis, MO, USA) was included as a positive control.

The target in a further experiment is T1, recombinant PfGSK-3 (Plasmodium falciparum, UniProt O77344).
T1 construct: 6xHis (N, cleaved yes); GST (N, cleaved yes); made in house; host or cells: E. coli BL21 (DE3)-RIL
Nature of the experiment: PfGSK-3 inhibition assay (KinaseGlo Plus). Conditions: tested up to a concentration of 10 µM, kinase Glo assay. It is filed as biochemical. As for the experimental part: PfGSK-3 was produced as published before. In brief, PfGSK-3 was cloned into pOPIN J expression vector [57] which was transformed into E. coli BL21 (DE3)-RIL. Expression of recombinant 6xHis-GST-PfGSK-3 was induced by incubation with isopropyl β-D-1-thiogalactopyranoside (IPTG). The recombinant protein was purified by affinity chromatography using glutathione resin and elution by digestion with human rhinovirus 3C protease.
The PfGSK-3 inhibition assay was carried out using the commercial KinaseGlo Plus assay (KinaseGlo Plus, Promega) as described before. In brief, the kinase and a corresponding substrate (GS-1 substrate, Promega) in the presence of ATP were used to perform substrate phosphorylation. Subsequently, luminescence is generated utilizing luciferase which is a component of the KinaseGlo Reagent. The intensity of the luminescence signal corresponds to the amount of remaining ATP in the reaction mixture. For the investigation, potential kinase inhibitors were dissolved in DMSO and were added directly to the kinase reaction. The final DMSO concentration in the kinase reaction was at most 1%. As the negative control, 1% DMSO without test compound was measured. A control reaction without kinase was measured simultaneously. The difference between kinase reaction and control reaction corresponds to the kinase activity.

A further experiment deals with human THP-1 cell line. The experiment can be described thus: Cytotoxicity assay on human THP-1 cell line (Alamar Blue). It is filed as cell-based. Particulars: for Selectivity Index (SI) = IC50, THP-1/IC50, Pf: THP-1 versus P. falciparum NF54-luc; for IC50: human THP-1 cell line, 48 h, Alamar Blue. As for the experimental part:
The cytotoxicity of selected antiplasmodial bisindolylcyclobutenediones was determined against THP-1 cells following a protocol described previously. In brief, THP-1 cells were incubated with test compounds in serial compound dilutions in the presence of 0.01% DMSO at 37 °C. After 48 h, Alamar Blue was added, and after 4 h the fluorescence was read (λex = 544 nm, λem = 590 nm) using a microplate reader. THP-1 cells in wells containing medium plus 0.01% DMSO served as negative controls. Experiments were performed in triplicate and were repeated as a whole at least twice.

Setting [2] is: NF54, 48 h, read-out: IC50 [µM], concentration for 50% inhibition of P. falciparum (NF54-luc strain) erythrocytic stages.

Entries after “also recorded” stand apart in the source; their conditions may differ. Where two headings read alike, the source gives them in different places.

T1 sequence (O77344 entry or part of it): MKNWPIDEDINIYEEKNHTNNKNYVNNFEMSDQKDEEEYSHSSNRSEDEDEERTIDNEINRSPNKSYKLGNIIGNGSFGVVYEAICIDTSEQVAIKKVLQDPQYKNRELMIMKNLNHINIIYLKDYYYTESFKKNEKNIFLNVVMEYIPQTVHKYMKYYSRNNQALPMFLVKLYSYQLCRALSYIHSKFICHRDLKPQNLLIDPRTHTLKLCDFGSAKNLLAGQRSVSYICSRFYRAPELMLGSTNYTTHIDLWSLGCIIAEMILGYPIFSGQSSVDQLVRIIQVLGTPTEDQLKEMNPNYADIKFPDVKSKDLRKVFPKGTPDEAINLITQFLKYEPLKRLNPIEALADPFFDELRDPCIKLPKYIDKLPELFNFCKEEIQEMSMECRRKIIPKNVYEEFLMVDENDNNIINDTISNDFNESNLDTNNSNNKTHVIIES

The term inhibition denotes the relative decrease from the control value, in per cent. As to `COc1ccc2[nH]cc(-c3c(-c4c[nH]c5ccc(Br)cc45)c(=O)c3=O)c2c1` [2ad, 3-(5-Bromo-1H-indol-3-yl)-4-(5-methoxy-1H-indol-3-yl)cyclobut-3-ene-1,2-dione], the IC50 in experiment [1] (setting [2]) is 0.47 µM; in experiment [1] (NF54, read-out: IC50, Pf [µM]), 0.47 µM; with human THP-1 cell line, 14100 nM. In experiment [1] (NF54, 48 h), the inhibition at 3 µM came to 98.8 ± 0.7%. Moreover, the “Inhibition of recombinant PfGSK-3” value at recombinant PfGSK-3 is “failed to show kinase inhibitory activity; also recorded: inactive; also recorded: did not inhibit PfGSK-3”. Besides, the “Selectivity Index (SI) = IC50, THP-1/IC50, Pf” value (“Selectivity Index (SI) = IC50” below) with human THP-1 cell line amounted to 30.
For `COc1ccc2[nH]cc(-c3c(-c4c[nH]c5ccc(I)cc45)c(=O)c3=O)c2c1` [2ae, 3-(5-Iodo-1H-indol-3-yl)-4-(5-methoxy-1H-indol-3-yl)cyclobut-3-en-1,2-dione], the IC50 in experiment [1] (setting [2]) was found to be 0.64 µM; in experiment [1] (NF54, read-out: IC50, Pf [µM]), 0.64 µM; with human THP-1 cell line, 14500 nM. Moreover, on recombinant PfGSK-3, the “Inhibition of recombinant PfGSK-3” value was “failed to show kinase inhibitory activity; also recorded: inactive; also recorded: did not inhibit PfGSK-3”. For the same compound, the “Selectivity Index (SI) = IC50” value with human THP-1 cell line is reported as 23.
Consider `O=c1c(-c2c[nH]c3ccccc23)c(-c2c[nH]c3ccc(Br)cc23)c1=O` [2b, 3-(5-Bromo-1H-indol-3-yl)-4-(1H-indol-3-yl)cyclobut-3-ene-1,2-dione], for which the IC50 in experiment [1] (setting [2]) is 3.02 µM; in experiment [1] (NF54, read-out: IC50, Pf [µM]) it was 3.02 µM; in experiment [1] (NF54, read-out: IC50 P. falciparum (quoted in the discussion)) it was 3 µM; with human THP-1 cell line, 23000 nM. For the same compound, in the experiment on human THP-1 cell line, the “Selectivity Index (SI) = IC50” value worked out at 7.6.
On to `O=c1c(-c2c[nH]c3ccccc23)c(-c2c(-c3ccccc3)[nH]c3ccccc23)c1=O` [2h, 3-(1H-Indol-3-yl)-4-(2-phenyl-1H-indol-3-yl)cyclobut-3-ene-1,2-dione], for which the IC50 was determined as 6.38 µM in experiment [1] (setting [2]); 6.38 µM in experiment [1] (NF54, read-out: IC50, Pf [µM]); 6370 nM in the experiment with human THP-1 cell line. Besides, in the experiment with human THP-1 cell line, the “Selectivity Index (SI) = IC50” value turned out to be 1.0.
For the compound `CN(C)CCCn1cc(-c2c(-c3c[nH]c4ccccc34)c(=O)c2=O)c2ccccc21` [2k, 3-{1-[3-(Dimethylamino)propyl]-1H-indol-3-yl}-4-(1H-indol-3-yl)cyclobut-3-ene-1,2-dione], the IC50 came out at 0.376 µM in experiment [1] (setting [2]); 0.38 µM in experiment [1] (NF54, read-out: IC50, Pf [µM]); 12800 nM in the experiment on human THP-1 cell line. In addition, the inhibition at 3 µM in experiment [1] (NF54, 48 h) was found to be 98.1 ± 1.8%. Also, on recombinant PfGSK-3, the “Inhibition of recombinant PfGSK-3” value is “failed to show kinase inhibitory activity; also recorded: inactive; also recorded: did not inhibit PfGSK-3”. Moreover, the “Selectivity Index (SI) = IC50” value in the experiment on human THP-1 cell line came out at 34.
On to `Cn1cc(-c2c(-c3c[nH]c4ccccc34)c(=O)c2=O)c2ccccc21` [2q, 3-(1H-Indol-3-yl)-4-(1-methyl-1H-indol-3-yl)cyclobut-3-ene-1,2-dione], for which the IC50 in experiment [1] (setting [2]) stood at 2.97 µM; in experiment [1] (NF54, read-out: IC50, Pf [µM]), 2.97 µM; in the experiment on human THP-1 cell line, 14000 nM. In addition, the “Selectivity Index (SI) = IC50” value in the experiment on human THP-1 cell line is on record as 4.7.
For the compound `O=c1c(-c2c[nH]c3ccccc23)c(-c2c[nH]c3ccc(I)cc23)c1=O` [2r, 3-(1H-Indol-3-yl)-4-(5-iodo-1H-indol-3-yl)cyclobut-3-ene-1,2-dione], the IC50 was found to be 0.915 µM in experiment [1] (setting [2]); 0.92 µM in experiment [1] (NF54, read-out: IC50, Pf [µM]); 7250 nM with human THP-1 cell line. Also, in the experiment on human THP-1 cell line, the “Selectivity Index (SI) = IC50” value turned out to be 7.9.
The like results for `Cn1cc(-c2c(-c3c(-c4ccccc4)[nH]c4ccccc34)c(=O)c2=O)c2ccccc21` [2u, 3-(1-Methyl-1H-indol-3-yl)-4-(2-phenyl-1H-indol-3-yl)cyclobut-3-ene-1,2-dione] were, in that order, 1.72 µM, 1.72 µM, 2100 nM and 1.2.
In the case of `Cc1[nH]c2ccccc2c1-c1c(-c2cn(C)c3ccccc23)c(=O)c1=O` [2y, 3-(1-Methyl-1H-indol-3-yl)-4-(2-methyl-1H-indol-3-yl)cyclobut-3-ene-1,2-dione], the IC50 in experiment [1] (setting [2]) is 2.67 µM; in experiment [1] (NF54, read-out: IC50, Pf [µM]), 2.67 µM; in the experiment with human THP-1 cell line it was 8400 nM. Besides, the “Selectivity Index (SI) = IC50” value in the experiment with human THP-1 cell line was 3.1.
